According to ChEMBL document CHEMBL1137080, “Synthesis and antiviral activity of (Z)- and (E)-2,2-[bis(hydroxymethyl)cyclopropylidene]methylpurines and -pyrimidines: second-generation methylenecyclopropane analogues of nucleosides” (J Med Chem, 2004):

How the values were obtained:
HepG2 = assay: In vitro cytotoxic concentration required to inhibit hepatitisB virus (HBV) replication in 2.2.15 cell line; assay type: functional; conditions: Homo sapiens
Human gammaherpesvirus 4 [1] = assay: In vitro effective concentration required to inhibit Epstein-Barr virus (EBV) replication in Daudi cells; assay type: functional, organism-based; conditions: human gammaherpesvirus 4, Daudi
HFF [2] = assay: In vitro cytotoxic concentration required to inhibit AD169 strain of human cytomegalovirus (HCMV) replication in HFF cell line; assay type: functional
Human betaherpesvirus 5 [3] = assay: In vitro cytotoxic concentration required to inhibit towne strain of human cytomegalovirus (HCMV) replication in HFF cell line; assay type: functional; conditions: Human betaherpesvirus 5, HFF
Human gammaherpesvirus 4 [4] = assay: In vitro effective concentration required to inhibit Epstein-Barr virus (EBV) replication in H-1 cell line; assay type: functional, organism-based; conditions: human gammaherpesvirus 4, H-1
Human betaherpesvirus 5 [5] = assay: In vitro effective concentration required to inhibit AD169 strain of human cytomegalovirus (HCMV) replication in HFF cell line; assay type: functional, organism-based; conditions: Human betaherpesvirus 5, HFF
Human betaherpesvirus 5 [6] = assay: In vitro effective concentration required to inhibit towne strain of human cytomegalovirus (HCMV) replication in HFF cell line; assay type: functional, organism-based; conditions: Human betaherpesvirus 5, HFF
Human alphaherpesvirus 3 = assay: In vitro effective concentration required to inhibit varicella zoster virus (VZV) replication in HFF cell line; assay type: functional, organism-based; conditions: Human alphaherpesvirus 3, HFF
Human gammaherpesvirus 4 [7] = assay: In vitro cytotoxic concentration required to inhibit Epstein-Barr virus (EBV) replication in Daudi cells; assay type: functional; conditions: human gammaherpesvirus 4, Daudi
Hepatitis B virus = assay: In vitro effective concentration required to inhibit hepatitisB virus (HBV) replication in 2.2.15 cell line; assay type: functional, organism-based
MEF = assay: In vitro effective concentration required to inhibit murine cytomegalovirus (MCMV) replication in MEF cell line; assay type: functional, cell-based; conditions: Mus musculus
Murid betaherpesvirus 1 = assay: In vitro cytotoxic concentration required to inhibit murine cytomegalovirus (MCMV) replication in MEF cell line; assay type: functional
HFF [8] = assay: In vitro effective concentration required to inhibit varicella zoster virus (VZV) replication in HFF cell line by plaque reduction assay; assay type: functional, cell-based; conditions: Homo sapiens

SMILES | CC50 (HepG2) | EC50 (Human gammaherpesvirus 4 [1]) | CC50 (HFF [2]) | CC50 (Human betaherpesvirus 5 [3]) | EC50 (Human gammaherpesvirus 4 [4]) | EC50 (Human betaherpesvirus 5 [5]) | EC50 (Human betaherpesvirus 5 [6]) | EC50 (Human alphaherpesvirus 3) | CC50 (Human gammaherpesvirus 4 [7]) | EC50 (Hepatitis B virus) | EC50 (MEF) | CC50 (Murid betaherpesvirus 1; Murid betaherpesvirus 1, MEF) | CC50 (Murid betaherpesvirus 1) | EC50 (HFF [8])
Nc1nc(N)c2ncn(C=C3CC3(CO)CO)c2n1 [listing 1 of 3 here] | > 100 µM | < 0.31 µM | > 381 µM | > 100 µM | > 20 µM | 313 µM | > 100 µM | 270 µM | 191 µM | > 20 µM |  |  |  | 
Nc1nc2c(ncn2COC(CO)CO)c(=O)[nH]1 [GANCICLOVIR] |  |  | > 392 µM | > 100 µM |  | 2.3 µM | 4.1 µM |  |  |  | 5 µM | > 35 µM |  | 
Nc1nc(N)c2ncn(C=C3CC3(CO)CO)c2n1 [listing 2 of 3 here] |  |  |  |  |  |  |  |  |  |  |  |  | Not toxic | 
COc1nc(N)nc2c1ncn2C=C1CC1(CO)CO [listing 1 of 3 here] |  |  |  |  |  |  |  |  |  |  |  |  | Not toxic | 
COc1nc(N)nc2c1ncn2C=C1CC1(CO)CO [listing 2 of 3 here] | > 100 µM | > 180 µM | > 361 µM | > 100 µM | > 20 µM | > 361 µM | > 100 µM | 322 µM | > 180 µM | > 20 µM |  |  |  | 
Nc1ccn(/C=C2\CC2(CO)CO)c(=O)n1 | > 50 µM | 152 µM | > 448 µM | > 100 µM | > 20 µM | > 448 µM | > 100 µM | > 448 µM | > 224 µM | > 10 µM |  |  |  | 
Nc1ncnc2c1ncn2/C=C1\CC1(CO)CO | > 50 µM | 132 µM | > 404 µM | > 100 µM | > 20 µM | > 404 µM | > 100 µM | 11.7 µM | > 202 µM | > 10 µM |  |  |  | 44.9 µM
Nc1nc(NC2CC2)c2ncn(/C=C3/CC3(CO)CO)c2n1 | > 100 µM | > 165 µM | > 331 µM | > 100 µM | > 20 µM | 255 µM | > 100 µM | > 66 µM | > 165 µM | > 20 µM |  |  |  | 
Nc1ncnc2c1ncn2/C=C1/CC1(CO)CO | > 50 µM | 166 µM | > 404 µM | 100 µM | 16 µM | 11.7 µM | 3.6 µM | > 404 µM | > 202 µM | > 10 µM | 9.7 µM | > 404 µM |  | 
COc1nc(N)nc2c1ncn2C=C1CC1(CO)CO [listing 3 of 3 here] | 90 µM | 161 µM | > 361 µM | > 100 µM | 4.8 µM | 2.7 µM | 3.5 µM | 11.2 µM | > 180 µM | > 20 µM | 2 µM | > 361 µM |  | 3.3 µM
Nc1ccn(/C=C2/CC2(CO)CO)c(=O)n1 | > 50 µM | > 45 µM | > 448 µM | > 100 µM | > 20 µM | 14.3 µM | 32 µM | > 448 µM | 70 µM | > 10 µM | 54 µM | > 448 µM |  | 
Cc1cn(/C=C2/CC2(CO)CO)c(=O)[nH]c1=O | > 50 µM | 4.6 µM | > 420 µM | > 100 µM | 19 µM | > 420 µM | > 100 µM | > 420 µM | > 210 µM | > 10 µM |  |  |  | 
Nc1nc(N)c2ncn(C=C3CC3(CO)CO)c2n1 [listing 3 of 3 here] | 48 µM | > 191 µM | > 381 µM | > 100 µM | > 20 µM | > 381 µM | 15 µM | 8.4 µM | > 191 µM | 4 µM |  |  |  | 38.9 µM
Nc1nc(Cl)c2ncn(C=C3CC3(CO)CO)c2n1 [listing 1 of 2 here] | 23.6 µM | > 178 µM | > 355 µM | > 100 µM | 16.4 µM | > 355 µM | > 100 µM | > 71 µM | > 178 µM | > 20 µM |  |  |  | 
Nc1nc(Cl)c2ncn(C=C3CC3(CO)CO)c2n1 [listing 2 of 2 here] | 11.6 µM | 142 µM | > 301 µM | > 100 µM | 16.4 µM | > 355 µM | > 100 µM | > 71 µM | > 178 µM | > 20 µM |  |  |  | 
Nc1nc(F)c2ncn(C=C3CC3(CO)CO)c2n1 [listing 1 of 2 here] | 56.4 µM | > 189 µM | > 377 µM | > 100 µM | 20.8 µM | 22.2 µM | 38 µM | 41.8 µM | > 189 µM | > 20 µM | 18.9 µM | 176 µM |  | 50.1 µM
Nc1nc2c(ncn2/C=C2/CC2(CO)CO)c(=O)[nH]1 [FILOCICLOVIR] | > 50 µM | 45 µM | > 380 µM | > 100 µM | 7 µM | 0.49 µM | 0.46 µM | > 380 µM | 74 µM | > 10 µM | 0.27 µM | > 380 µM |  | 
Nc1nc(NC2CC2)c2ncn(/C=C3\CC3(CO)CO)c2n1 | > 100 µM | 0.3 µM | > 331 µM | > 100 µM | > 20 µM | 327 µM | > 100 µM | > 331 µM | > 165 µM | > 20 µM |  |  |  | 
Nc1nc2c(ncn2/C=C2\CC2(CO)CO)c(=O)[nH]1 | > 50 µM | 119 µM | > 380 µM | > 100 µM | > 20 µM | 120 µM | 39 µM | > 357 µM | > 190 µM | > 20 µM | 42 µM | > 380 µM |  | 
Cc1cn(/C=C2\CC2(CO)CO)c(=O)[nH]c1=O | > 50 µM | 178 µM | > 420 µM | > 100 µM | > 20 µM | > 420 µM | > 100 µM | > 420 µM | > 210 µM | > 10 µM |  |  |  | 
Nc1nc(F)c2ncn(C=C3CC3(CO)CO)c2n1 [listing 2 of 2 here] | > 100 µM | > 189 µM | > 337 µM | > 100 µM | 18.5 µM | 43.7 µM | 33 µM | 31.7 µM | > 189 µM | 0.02 µM | 18.9 µM | 176 µM |  | 180 µM
